Data as given in patent US8703783B2, “Purinone derivatives as HM74A agonists” (Incyte Corporation, priority 2006, dated 2014).

Columns and labels:
human HM74a [1] = target: T1, human HM74a (Homo sapiens, UniProt Q8TDS4); assay: cAMP assay; format: cell-based; set-up: expressed in transfected cells; settings: CHO cells stably transfected with human HM74a; 5 μM forskolin; inhibition relative to DMSO controls
Experimental: CHO cells stably transfected with human HM74a were seeded at 7,500 cells/well in a 96-well plate in HAMS F12 medium with 10% FBS. The plate was incubated overnight at 37° C. and 5% CO2. The test compounds were prepared in a stimulation buffer containing 1×HANKS, 20 mM HEPES, 5 μM forskolin, and 0.25 mM IBMX. The media from the cell plate was removed before adding 30 μL of the test compounds. After 30 minute incubation at 37° C. and 5% CO2, the cAMP level was assayed using HitHunter cAMP XS assay kit (DiscoverX, CA). IC50 determinations were based on compound inhibition relative to DMSO controls.

human HM74a [2] = target: T1, human HM74a; assay: GTPγS recruitment assay; format: biochemical; set-up: expressed in transfected cells; host or cells: HEK293 (transient transfection; membranes); settings: membranes of HEK293 cells transfected with human HM74a and Gα0; 35S GTPγS
Experimental: Membranes were prepared from HEK293 cells transiently transfected with human HM74a and Gα0 protein. Assays were performed in 384-well format in a volume of 50 μL per assay point. Serial dilutions of compounds were prepared in the assay buffer (20 mM HEPES pH. 7.4, 100 mM NaCl, 10 mM MgCl2, 10 mg/L saponin and 10 μM GDP) and mixed with membranes (2 μg per assay point) and ^35S GTPγS (Amersham, 0.3 nM) in the assay buffer. The mixtures were incubated at room temperature for 30 mM and wheat germ agglutinin SPA beads (Amersham) (0.2 mg per assay point) in the assay buffer were added. After […] incubation with agitation, plates were centrifuged at 1500 g for 5 mM and bound ^35S GTPγS was determined by counting on a TopCount scintillation counter. […] For example, the compound of Example 1 has an EC50 of 80 nM in this assay.

mature adipocytes = assay: Adipocyte lipolysis assay; format: cell-based; settings: glycerol in supernatant after overnight culture with IBMX (100 μM), relative to DMSO controls
Experimental: Preadipocytes purchased from Zen Bio were plated at 8.7×10 ^4 cells/well in 96-well plates, differentiated for 14 days and mature adipocytes assayed during days 15 through 21. Adipocyte maturation is assessed by the presence of rounded cells with large lipid droplets in the cytoplasm. Following maturation, cells were washed and incubated overnight with IBMX (100 μM) and various concentrations of compound diluted in assay buffer containing a final DMSO concentration of 0.1%. After overnight culture, the glycerol concentration in the supernatants was determined with the Lipolysis Assay Kit purchased from Zen-Bio. Absorbance at 540 nm is directly proportional to the glycerol concentration in the sample. IC50 determinations were based on compound inhibition relative to DMSO controls.

[3] = cited from earlier work

T1 sequence (Q8TDS4 whole entry): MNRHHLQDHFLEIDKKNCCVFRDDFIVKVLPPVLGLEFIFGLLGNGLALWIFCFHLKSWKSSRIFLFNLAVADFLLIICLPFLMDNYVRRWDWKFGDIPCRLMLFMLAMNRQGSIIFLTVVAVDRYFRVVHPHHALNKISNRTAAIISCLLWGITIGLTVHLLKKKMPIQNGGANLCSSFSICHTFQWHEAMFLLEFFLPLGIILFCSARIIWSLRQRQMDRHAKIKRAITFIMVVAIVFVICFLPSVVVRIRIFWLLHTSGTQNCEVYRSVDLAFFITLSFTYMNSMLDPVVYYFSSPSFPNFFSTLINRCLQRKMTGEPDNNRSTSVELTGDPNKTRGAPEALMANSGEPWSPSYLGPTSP

Question: Which results are given for `CCCCCn1c2nc(C(F)(F)F)[nH]c2c(=O)n2c(C)nnc12` [Example 1, 3-methyl-9-pentyl-7-(trifluoromethyl)-6,9-dihydro-5H-[1,2,4]triazolo[4,3-a]purin-5-one]?
Answer: IC50 (human HM74a [1]): 20 nM; EC50 (human HM74a [2]): 80 nM

Question: Which IC50 (mature adipocytes) does the source give for `CCCCCn1c2nc(Br)[nH]c2c(=O)n2c(CCc3nc(Cc4ccncc4)no3)nnc12` [Example 77, 7-bromo-9-pentyl-3-{2-[3-(pyridine-4-ylmethyl)-1,2,4-oxadiazol-5-yl]ethyl}-6,9-dihydro-5H-[1,2,4]triazolo[4,3-a]purin-5-one] here?
Answer: 37 nM

Question: Which “maximal LDL reductions” value ([3]; co-formulated with a statin) does the source give for `O=C1[C@H](CC[C@H](O)c2ccc(F)cc2)[C@@H](c2ccc(O)cc2)N1c1ccc(F)cc1` [Ezetimibe] here?
Answer: exceed 60%

Question: And the “lowers LDL” value ([3]; monotherapy)?
Answer: 20%

Question: Which “lowering circulating plasma LDL” value ([3]; human, in vivo) does the source give for `O=C(O)c1cccnc1` [Nicotinic acid, nicotinic acid] here?
Answer: 16%

Question: And the lowering triglycerides ([3]; human, in vivo)?
Answer: 38%

Question: And the “raising HDL levels” value ([3]; human, in vivo)?
Answer: 20-30%
